Reference: PubChem BioAssay AID2060504 (Molecular Pharmacology Branch, DTP, NCI, 2025)
Several values for one entry are separate records, joined by “and”; a condition that tells them apart may be missing. Equal values may be shown once.

Tested on: 636577-100-R-J1-PDC complex spheroid viability
Assay: Anticancer human tumor 636577-100-R-J1-PDC patient-derived endometrial adenocarcinoma cell line growth inhibition [GQUAD]
Conditions: for viability, T/C: stronger effect = lower value
Description: DNA G-quadruplex Stabilizer Agents in Combinations in Complex Spheroids
A high-throughput screen of multi-cell type tumor spheroids was designed to identify active combinations of DNA G-quadruplex stabilizer agents and targeted small molecules. Complex spheroids include a stromal component modeled by human endothelial cells (HUVEC) and fibroblasts modeled by human mesenchymal stem cells (MSCs). The concentration ranges selected for each drug and investigational agent were based upon clinically achievable concentrations if the clinical Cmax of the agent was known.
Compounds. The drugs and investigational agents: pidnarulex (CX-5461; NSC782164), APTO-253 (NSC789042), BRACO-19 (NSC847499), peposertib (NSC802822), ceralasertib (NSC780249), elimusertib (NSC800525), camonsertib (NSC841442), AZD-1390 (NSC803789), olaparib (NSC753686), talazoparib (NSC767125), ART-558 (NSC835418), sotorasib (NSC818433), MRTX-1133 (NSC836407), SN-38 (NSC673596), topotecan (NSC609699), etoposide (NSC141540), doxorubicin (NSC123127), gemcitabine (NSC613327), 5-fluorouracil (NSC19893), paclitaxel (NSC125973), vemurafenib (NSC761431), panobinostat (NSC761190), R-306465 (JNJ-16241199; NSC773264), adavosertib (NSC754352), TP-3654 (NSC805149), carboplatin (NSC241240), KSQ-4279 (NSC840948), and staurosporine (NSC755774) were obtained from the National Cancer Institute (NCI) Developmental Therapeutics Program Chemical Repository (34). The FDA-approved anticancer drug set is available from the NCI Developmental Therapeutics Program. […] The stock solutions were prepared in dimethyl sulfoxide (DMSO, Sigma-Aldrich, St. Louis, MO, cat. D2650) at 800-fold the tested concentration and stored at -70 degrees C prior to their use. All drugs and investigational agents were tested over a range starting from a high concentration at or near the clinical Cmax and decreasing in half-log increments. If the clinical Cmax for an agent had not been determined, the highest concentration tested was 10 microM.
2.3 Cell Culture. All cells were maintained in an incubator at 37 degrees C and 5% CO2 with 95% humidity. The PDC lines were cultured according to standard operating procedures established by the NCI PDMR. All PDCs were thawed and cultured in Matrigel-coated flasks prepared with a working solution of 1X Ham's F-12 nutrient mix, without supplementation (Invitrogen, cat. 11765054), 100 U/mL penicillin-streptomycin (Invitrogen, cat. 15140122), and 2.5% Matrigel (Corning Inc., cat. 354248) for the first three passages. The 857933-349-R-J2-PDC line was cultured in 6C/Colon 1B media, which includes advanced DMEM/F-12 (Thermo Fisher Scientific, cat. 12634028), 10 mM HEPES (Thermo Fisher Scientific, cat. 15630080), 1X GlutaMAX supplement (Thermo Fisher Scientific, cat. 35050061), 0.1 mg/mL primocin (InvivoGen, cat. ant-pm-2), 10% defined fetal bovine serum, heat inactivated (HyClone Laboratories Inc., cat. SH30070.03HI), 50% L-WRN conditioned media (ATCC, cat. CRL-3276), 1.25 mM N-Acetyl-L-cysteine (Sigma-Aldrich, cat. A9165), 10 mM nicotinamide (Sigma-Aldrich, cat. N0636), 1X B-27 supplement (Thermo Fisher Scientific, cat. 17504044), 1X N-2 supplement (Thermo Fisher Scientific, cat. 17502048), 10 microM Y-27632 dihydrochloride (Tocris Bioscience, cat. 1254), and 50 ng/mL human EGF recombinant protein (Thermo Fisher Scientific, cat. PHG0311). The 485176-168-R4-J1-PDC line was cultured in Panc media, which includes all 6C/Colon 1B media components plus 100 ng/mL human FGF-10 (Thermo Fisher Scientific, cat. 100-26), 500 nM SB-431542 (Selleckchem, cat. S1067), and gastrin (Tocris, cat. 3006).
[…]
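Further: viability read after seven days of drug exposure.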
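Wherever viability, T/C is given: luminescence signal used as a proxy for viable cells; 100% = DMSO vehicle control wells.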

Nc1ccn(C2OC(CO)C(O)C2(F)F)c(=O)n1 (configuration not stated)
viability, T/C (compound 0.0316 µM): 15% and 15.2% | viability, T/C (compound 0.1 µM): 14.2% and 11.3% | viability, T/C (compound 0.316 µM): 17.7% and 13.5% | viability, T/C (compound 1 µM): 16.3% and 13.1% | viability, T/C (compound 3.16 µM): 13.8% and 14.3% | viability, T/C (compound 10 µM): 14.2% and 11% | IC50 (curve of compound): < 31.6 nM

CC1COCCN1c1cc(C2(O)CC3CCC(C2)O3)c2cnn(-c3ccn[nH]3)c2n1 (configuration not stated) + CN(C)c1ccc(Nc2c3ccc(NC(=O)CCN4CCCC4)cc3nc3cc(NC(=O)CCN4CCCC4)ccc23)cc1
IC50 (curve of first compound, second compound 0.0316 µM): 46.2 nM | IC50 (curve of first compound, second compound 0.1 µM): 33.6 nM | IC50 (curve of first compound, second compound 0.316 µM): < 31.6 nM | IC50 (curve of first compound, second compound 1 µM): < 31.6 nM | IC50 (curve of first compound, second compound 3.16 µM): < 31.6 nM | IC50 (curve of first compound, second compound 10 µM): < 31.6 nM | viability, T/C (second compound 0.0316 µM, first compound 0.0316 µM): 59.8% | viability, T/C (second compound 0.0316 µM, first compound 0.1 µM): 30.1% | viability, T/C (second compound 0.0316 µM, first compound 0.316 µM): 14.8% | viability, T/C (second compound 0.0316 µM, first compound 1 µM): 7.23% | viability, T/C (second compound 0.0316 µM, first compound 3.16 µM): 3% | viability, T/C (second compound 0.0316 µM, first compound 10 µM): 0.68% | viability, T/C (second compound 0.1 µM, first compound 0.0316 µM): 51.9% | viability, T/C (second compound 0.1 µM, first compound 0.1 µM): 25.7% | viability, T/C (second compound 0.1 µM, first compound 0.316 µM): 15.9% | viability, T/C (second compound 0.1 µM, first compound 1 µM): 6.63% | viability, T/C (second compound 0.1 µM, first compound 3.16 µM): 2.93% | viability, T/C (second compound 0.1 µM, first compound 10 µM): 0.63% | viability, T/C (second compound 0.316 µM, first compound 0.0316 µM): 49.4% | viability, T/C (second compound 0.316 µM, first compound 0.1 µM): 27.2% | viability, T/C (second compound 0.316 µM, first compound 0.316 µM): 14.4% | viability, T/C (second compound 0.316 µM, first compound 1 µM): 7.39% | viability, T/C (second compound 0.316 µM, first compound 3.16 µM): 2.94% | viability, T/C (second compound 0.316 µM, first compound 10 µM): 0.62% | viability, T/C (second compound 1 µM, first compound 0.0316 µM): 44.5% | viability, T/C (second compound 1 µM, first compound 0.1 µM): 24.9% | viability, T/C (second compound 1 µM, first compound 0.316 µM): 13.1% | viability, T/C (second compound 1 µM, first compound 1 µM): 7.03% | viability, T/C (second compound 1 µM, first compound 3.16 µM): 2.84% | viability, T/C (second compound 1 µM, first compound 10 µM): 0.8% | viability, T/C (second compound 3.16 µM, first compound 0.0316 µM): 23.6% | viability, T/C (second compound 3.16 µM, first compound 0.1 µM): 18.4% | viability, T/C (second compound 3.16 µM, first compound 0.316 µM): 12.6% | viability, T/C (second compound 3.16 µM, first compound 1 µM): 6.87% | viability, T/C (second compound 3.16 µM, first compound 3.16 µM): 2.75% | viability, T/C (second compound 3.16 µM, first compound 10 µM): 0.79% | viability, T/C (second compound 10 µM, first compound 0.0316 µM): 5.13% | viability, T/C (second compound 10 µM, first compound 0.1 µM): 4.81% | viability, T/C (second compound 10 µM, first compound 0.316 µM): 2.43% | viability, T/C (second compound 10 µM, first compound 1 µM): 2.03% | viability, T/C (second compound 10 µM, first compound 3.16 µM): 1.14% | viability, T/C (second compound 10 µM, first compound 10 µM): 0.3%

CC[C@@]1(O)C(=O)OCc2c1cc1n(c2=O)Cc2cc3c(CN(C)C)c(O)ccc3nc2-1
viability, T/C (compound 0.000999 µM): 85.3% | viability, T/C (compound 0.00316 µM): 80.8% | viability, T/C (compound 0.00999 µM): 82.9% | viability, T/C (compound 0.0316 µM): 40.3% | viability, T/C (compound 0.0999 µM): 19.1% | viability, T/C (compound 0.316 µM): 22% | IC50 (curve of compound): 24.3 nM

CN(C)c1ccc(Nc2c3ccc(NC(=O)CCN4CCCC4)cc3nc3cc(NC(=O)CCN4CCCC4)ccc23)cc1
viability, T/C (compound 0.0316 µM): 104% [middle of 12 runs] | viability, T/C (compound 1 µM): 82.9% [middle of 12 runs] | viability, T/C (compound 3.16 µM): 40.7% [middle of 12 runs] | viability, T/C (compound 10 µM): 6.05% [middle of 12 runs] | IC50 (compound alone, run of 03/26/2024): 2.41 µM [middle of 11 runs]

O=c1[nH]cc(F)c(=O)[nH]1
viability, T/C (compound 0.0316 µM): 102% and 99.7% | viability, T/C (compound 0.1 µM): 85% and 68.9% | viability, T/C (compound 0.316 µM): 101% and 89.5% | viability, T/C (compound 1 µM): 76.2% and 91.4% | viability, T/C (compound 3.16 µM): 44.2% and 71% | viability, T/C (compound 10 µM): 24.7% and 28.6% | IC50 (curve of compound): 2530 nM and 5590 nM

CC(=O)O[C@H]1C(=O)[C@@]2(C)[C@H]([C@H](OC(=O)c3ccccc3)[C@]3(O)C[C@H](OC(=O)[C@H](O)[C@@H](NC(=O)c4ccccc4)c4ccccc4)C(C)=C1C3(C)C)[C@]1(OC(C)=O)CO[C@@H]1C[C@@H]2O
viability, T/C (compound 0.0316 µM): 17.6% and 17.3% and 20.3% | viability, T/C (compound 0.1 µM): 14% and 14.4% and 13.2% | viability, T/C (compound 0.316 µM): 12.3% and 12.7% and 10.3% | viability, T/C (compound 1 µM): 12.2% and 12% and 10% | viability, T/C (compound 3.16 µM): 9.72% and 10.1% and 7.81% | viability, T/C (compound 10 µM): 9.54% and 9.71% and 8.27% | IC50 (curve of compound): < 31.6 nM

C=CCn1c(=O)c2cnc(Nc3ccc(N4CCN(C)CC4)cc3)nc2n1-c1cccc(C(C)(C)O)n1
viability, T/C (compound 0.0316 µM): 85% and 95.4% and 95.7% | viability, T/C (compound 0.1 µM): 83.5% and 87.5% and 102% | viability, T/C (compound 0.316 µM): 82.6% and 74.1% and 110% | viability, T/C (compound 1 µM): 39.1% and 30.6% and 46.6% | viability, T/C (compound 3.16 µM): 16.7% and 15% and 16.4% | viability, T/C (compound 10 µM): 11.8% and 9.58% and 9.6% | IC50 (curve of compound): 749 nM and 598 nM and 932 nM
